Data reported in BindingDB's records for doi:10.1016/j.chembiol.2006.05.008 (Gpc Biotech, 2006).

Target: Cyclin-dependent kinase 2 (Homo sapiens, UniProt P24941)
Assay: Enzymatic Assay
Method: CAII assays were performed at CEREP (paris). All other kinase assays were performed at Upstate (Dundee, UK).

- EC50: 70 nM
- IC50: 20 nM
Structure (SMILES): CC(C)c1nn(-c2c(Cl)cc(Cl)cc2Cl)c2nc(Cc3ccc(OC(C)(C)C(=O)O)cc3)[nH]c(=O)c12 [RGB-285961]
